Earlier results on one molecule are cited in patent publication US20250009670A1, “Stable Solid Oral Formulation Of Tafamidis Or Pharmaceutically Acceptable Salt Thereof” (Navinta, LLC, priority 2023, published 2025).

With `O=C(O)c1ccc2nc(-c3cc(Cl)cc(Cl)c3)oc2c1` [Tafamidis, 2-(3,5-dichlorophenyl)-1,3-benzoxazole-6-carboxylic acid], the aqueous solubility result was “low aqueous solubility”.
